In US20230278984A1 (Global Blood Therapeutics, Inc., priority 2020, published 2023):

How the values were obtained:
[1] = test system: mouse model of beta-thalassemia; details: cited from earlier work
[2] = molecular target: T1, Human pyruvate kinase R (PKR) (Homo sapiens, UniProt P30613); assay: Biochemical assay for activation of pyruvate kinase R (Kinase-Glo luminescence measurement of ATP generation); details: for AC50: PKR biochemical assay, 0.1 nM PKR, 0.3 mM ADP, 2 mM FBP, 0.1 mM PEP; for Emax: maximal activation level relative to the activation level achieved by the literature compound AG-348 @ 10 μM
T1 construct: Human pyruvate kinase R (PKR), residues 14-574; 6x-His (N, cleaved yes); 8x-Arg (N, cleaved yes); SUMO (N, cleaved yes); host or cells: E. coli
Outline: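 Recombinant human PKR (residues 14-574), E. coli-expressed with His-Arg-SUMO tag removed, purified by Ni-NTA, anion exchange and size exclusion. Activation measured as ATP generation via Kinase-Glo luminescence.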

T1 sequence (P30613 14-574): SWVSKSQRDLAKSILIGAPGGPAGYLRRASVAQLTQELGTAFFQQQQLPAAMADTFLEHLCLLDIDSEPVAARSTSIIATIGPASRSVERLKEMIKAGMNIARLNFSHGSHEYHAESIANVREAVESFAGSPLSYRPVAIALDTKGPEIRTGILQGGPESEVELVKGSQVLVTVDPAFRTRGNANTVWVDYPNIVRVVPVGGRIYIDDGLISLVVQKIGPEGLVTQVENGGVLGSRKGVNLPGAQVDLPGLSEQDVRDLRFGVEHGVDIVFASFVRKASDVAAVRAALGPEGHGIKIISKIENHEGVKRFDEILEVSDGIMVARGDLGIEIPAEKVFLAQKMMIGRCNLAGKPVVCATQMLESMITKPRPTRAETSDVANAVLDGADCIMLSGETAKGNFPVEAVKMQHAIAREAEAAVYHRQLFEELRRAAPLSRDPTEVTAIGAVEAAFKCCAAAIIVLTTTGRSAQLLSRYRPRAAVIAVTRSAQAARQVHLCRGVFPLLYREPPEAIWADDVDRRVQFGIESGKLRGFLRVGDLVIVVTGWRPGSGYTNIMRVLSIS

| AC50 [2] [µM] | Emax [2] [%] | Structure (SMILES) | PK activity, ATP levels and RBC parameters [1] |
| --- | --- | --- | --- |
| 0.14 | 70 | COc1ccc(-n2ncnc2CNC(=O)NCc2nc(C)nn2-c2ccc(Cl)c(F)c2)cn1 [Compound 123, 3-{[1-(4-chloro-3-fluorophenyl)-3-methyl-1H-1,2,4-triazol-5-yl]methyl}-1-{[1-(6-methoxypyridin-3-yl)-1H-1,2,4-triazol-5-yl]methyl}urea] |  |
| 0.024 | 37 | Cn1ncc2cc(-n3ncnc3CNC(=O)NCc3ncnn3-c3ccc(Cl)c(F)c3)ccc21 [Compound 52, 1-{[1-(4-chloro-3-fluorophenyl)-1H-1,2,4-triazol-5-yl]methyl}-3-{[1-(1-methyl-1H-indazol-5-yl)-1H-1,2,4-triazol-5-yl]methyl}urea] |  |
| 0.083 | 87 | Cc1nc(CNC(=O)NCc2nc(C)nn2-c2ccc3cccnc3c2)n(-c2ccc(Cl)c(F)c2)n1 [Compound 87, 1-{[1-(4-chloro-3-fluorophenyl)-3-methyl-1H-1,2,4-triazol-5-yl]methyl}-3-{[3-methyl-1-(quinolin-7-yl)-1H-1,2,4-triazol-5-yl]methyl}urea] |  |
| 0.036 | 80 | O=C(NCc1ncnn1-c1ccc2cccnc2c1)NCc1nc(CF)nn1-c1ccc(Cl)c(F)c1 [Compound 104, 1-{[1-(4-chloro-3-fluorophenyl)-3-(fluoromethyl)-1H-1,2,4-triazol-5-yl]methyl}-3-{[1-(quinolin-7-yl)-1H-1,2,4-triazol-5-yl]methyl}urea] |  |
| 0.051 | 76 | O=C(NCc1ncnn1-c1ccc(Cl)c(F)c1)NCc1ncnn1-c1cnc2cc(F)ccc2c1 [Compound 145, 1-{[1-(4-chloro-3-fluorophenyl)-1H-1,2,4-triazol-5-yl]methyl}-3-{[1-(7-fluoroquinolin-3-yl)-1H-1,2,4-triazol-5-yl]methyl}urea] |  |
| 0.12 | 73 | Cc1nc(CN(C)C(=O)NCc2ncnn2-c2ccc3cccnc3c2)n(-c2ccc(Cl)c(F)c2)n1 [Compound 53, 1-{[1-(4-chloro-3-fluorophenyl)-3-methyl-1H-1,2,4-triazol-5-yl]methyl}-1-methyl-3-{[1-(quinolin-7-yl)-1H-1,2,4-triazol-5-yl]methyl}urea] |  |
| 0.04 | 81 | Cc1nc(CNC(=O)NCc2ncnn2-c2ccc3ncccc3c2)n(-c2ccc(Cl)c(F)c2)n1 [Compound 41, 1-{[1-(4-chloro-3-fluorophenyl)-3-methyl-1H-1,2,4-triazol-5-yl]methyl}-3-{[1-(quinolin-6-yl)-1H-1,2,4-triazol-5-yl]methyl}urea] |  |
| 0.27 | 85 | Cc1nc(CNC(=O)NCc2ncnn2-c2ccc3cnccc3c2)n(-c2ccc(Cl)c(F)c2)n1 [Compound 82, 1-{[1-(4-chloro-3-fluorophenyl)-3-methyl-1H-1,2,4-triazol-5-yl]methyl}-3-{[1-(isoquinolin-6-yl)-1H-1,2,4-triazol-5-yl]methyl}urea] |  |

More lines, now with the values behind:

| Structure (SMILES) | AC50 [2] [µM] | Emax [2] [%] | PK activity, ATP levels and RBC parameters [1] |
| --- | --- | --- | --- |
| O=C(c1ccc(NS(=O)(=O)c2cccc3cccnc23)cc1)N1CCN(CC2CC2)CC1 [AG-348, Mitapivat] |  |  | increased PK activity and ATP levels, as well as improved RBC parameters |
| Cc1nc(CNC(=O)NCc2nn(C)c(=O)n2-c2ccc(Cl)c(F)c2)n(-c2ccc(Cl)c(F)c2)n1 [Compound 90, 3-{[4-(4-chloro-3-fluorophenyl)-1-methyl-5-oxo-4,5-dihydro-1H-1,2,4-triazol-3-yl]methyl}-1-{[1-(4-chloro-3-fluorophenyl)-3-methyl-1H-1,2,4-triazol-5-yl]methyl}urea] | 0.04 | 97 |  |
| Cc1ccc(-n2ncnc2CNC(=O)NCc2ncnn2-c2ccc(C)c(F)c2)cc1F [Compound 67, 1,3-bis({[1-(3-fluoro-4-methylphenyl)-1H-1,2,4-triazol-5-yl]methyl})urea] | 0.044 | 58 |  |
| Cc1nc(CNC(=O)NCC2=NC3(CC3)C(=O)N2Cc2ccc(F)cc2)n(-c2ccc(Cl)c(F)c2)n1 [Compound 106, 1-{[1-(4-chloro-3-fluorophenyl)-3-methyl-1H-1,2,4-triazol-5-yl]methyl}-3-({6-[(4-fluorophenyl)methyl]-7-oxo-4,6-diazaspiro[2.4]hept-4-en-5-yl}methyl)urea] | 0.071 | 125 |  |
| CCN(Cc1ncnn1-c1ccc(Cl)c(F)c1)C(=O)NCc1ncnn1-c1ccc(Cl)c(F)c1 [Compound 30, 1,3-bis({[1-(4-chloro-3-fluorophenyl)-1H-1,2,4-triazol-5-yl]methyl})-1-ethylurea] | 0.018 | 48 |  |
| Cc1ccc(-n2nnnc2CNC(=O)NCc2nnnn2C2CCCCC2)cc1C [Compound 72, 1-[(1-cyclohexyl-1H-1,2,3,4-tetrazol-5-yl)methyl]-3-{[1-(3,4-dimethylphenyl)-1H-1,2,3,4-tetrazol-5-yl]methyl}urea] | 1.8 | 68 |  |
| CN(Cc1ncnn1-c1ccc(Cl)c(F)c1)C(=O)NCc1nnnn1-c1ccc(Cl)c(F)c1 [Compound 33, 1-{[1-(4-chloro-3-fluorophenyl)-1H-1,2,3,4-tetrazol-5-yl]methyl}-3-{[1-(4-chloro-3-fluorophenyl)-1H-1,2,4-triazol-5-yl]methyl}-3-methylurea] | 0.009 | 67 |  |
